Assays:
[1] = target: T1, Sigma non-opioid intracellular receptor 1 (Homo sapiens, UniProt Q99720); assay: Displacement of [125I]N-IACoc from sigma 1 receptor (unknown origin)
[2] = target: T2, Sigma non-opioid intracellular receptor 1 (Rattus norvegicus, UniProt Q9R0C9); assay: Displacement of [125I]IACoc from sigma 1 receptor in rat liver microsomes
[3] = target: T1, Sigma non-opioid intracellular receptor 1; assay: Displacement of [125I]N-IAC44 from sigma 1 receptor (unknown origin)
[4] = target: T2, Sigma non-opioid intracellular receptor 1; assay: Displacement of [3H]-(+)-pentazocine from sigma 1 receptor in rat liver homogenates; type: tissue-based

T1 sequence (Q99720 whole entry): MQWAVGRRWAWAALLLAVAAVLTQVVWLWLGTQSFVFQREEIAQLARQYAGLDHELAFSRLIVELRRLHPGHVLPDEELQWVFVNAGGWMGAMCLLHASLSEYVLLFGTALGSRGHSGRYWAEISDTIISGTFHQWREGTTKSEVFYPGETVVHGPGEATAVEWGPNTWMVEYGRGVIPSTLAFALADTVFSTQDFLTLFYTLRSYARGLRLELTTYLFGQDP
T2 sequence (Q9R0C9 whole entry): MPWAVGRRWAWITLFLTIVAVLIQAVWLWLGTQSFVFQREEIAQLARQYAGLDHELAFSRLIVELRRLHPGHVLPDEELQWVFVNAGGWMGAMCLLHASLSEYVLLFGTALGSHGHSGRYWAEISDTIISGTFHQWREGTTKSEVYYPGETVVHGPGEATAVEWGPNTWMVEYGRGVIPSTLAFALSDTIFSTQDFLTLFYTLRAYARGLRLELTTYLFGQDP

COC(=O)[C@H]1[C@@H](OC(=O)c2ccccc2)C[C@@H]2CC[C@H]1N2CCc1ccc(N=[N+]=[N-])c([125I])c1 gave a Kd [1] of 11 nM.
COC(=O)[C@H]1[C@@H](OC(=O)c2ccc(N=[N+]=[N-])c([125I])c2)C[C@@H]2CC[C@H]1N2C showed a Ki [2] of 0.126 nM.
CCCN(CCCc1ccccc1)CCc1ccc(N=[N+]=[N-])c([125I])c1 was tested, and the Kd [3] was 7.2 nM.
Molecule CN(C)CCc1c[nH]c2ccccc12 [N,N-DIMETHYLTRYPTAMINE] has a Ki [4] of 15400 nM.
